Source: patent US9546401B2, “Assays and methods for selecting a treatment regimen for a subject with depression” (The General Hospital Corporation, priority 2011, dated 2017)
Where two headings read alike, the source gives them in different places.

Test system: MDD patients carrying the indicated biomarkers
Experimental: Folate levels are classified as either low (<=2.5 ng/ml) or normal; and homocysteine levels as either normal or elevated (>=[…]). The presence or absence of at least one […] allele for the MTHFR gene are entered as a dichotomous variable (present or absent). […] Using folate as an example predicator, the presence or absence of a low serum-folate level along with treatment assignment can be entered in a 2×2, factorial ANOVA, using depression improvement scores (baseline minus endpoint HAM-D-17 scores) as the dependant variable. […] Similar analyses (i.e. separate 2×2 ANOVA's) can be performed substituting the presence of low folate levels for the presence of other predictors as described herein. Similarly, the effect of other predictors can be indicated by the interaction term representing the potential modulating influence of those variables.
The efficacy effect is determined by measuring the mean change in the HAMD-17 score and HAMD-28 score by the end of Phase I and Phase II, as compared to the baseline.

[1] = Phase I, BMI < 30 kg/m^2 and SAM/SAH >= median
[2] = Phase I, BMI >= 30 kg/m^2 and HNE-His >= median
[3] = Phase I, BMI*treat (interaction of BMI with the treatment)
[4] = Phase I, MTHFR 677 CC and BMI < 30 kg/m^2
[5] = Phase I, MTHFR 677 CT or TT and BMI >= 30 kg/m^2
[6] = Phase I, MTHFR 677 CT or TT and HNE-His >= median
[7] = Phase I, MTR 2756 AA and BMI < 30 kg/m^2
[8] = Phase I, MTR 2756 AA and HNE-His < median
[9] = Phase I, MTR 2756 AA and MTRR 66 AA
[10] = Phase I, MTR 2756 AA and MTRR 66 AA and SAM/SAH >= median
[11] = Phase I, MTR 2756 AA and SAM/SAH >= median
[12] = Phase I, MTR 2756 AG or GG and BMI >= 30 kg/m^2
[13] = Phase I, MTR 2756 AG or GG and MTRR 66 AG or GG
[14] = Phase I, MTR 2756 AG or GG and MTRR 66 AG or GG and HNE-His >= median
[15] = Phase I, MTRR 66 AA and SAM/SAH >= median
[16] = Phase I, MTRR 66 AG or GG and HNE-His >= median
[17] = Phase I, SAM/SAH < median and HNE-His >= median
[18] = Phase I, SAM/SAH >= median and HNE-His < median
[19] = Phase II, 25 =< BMI < 30 kg/m^2

CN1c2c(nc(N)[nH]c2=O)NC[C@@H]1CNc1ccc(C(=O)N[C@@H](CCC(=O)O)C(=O)O)cc1 [6(S)-5-MTHF, 6(S)-5-methyltetrahydrofolate]
Effect on change in HAMD-28 score (Phase I, BMI < 30 kg/m^2 and HNE-His < median): 4.606 | Effect on change in HAMD-17 score [1]: 4.333 | Effect on change in HAMD-28 score [1]: 4.333 | Effect on change in HAMD-17 score (Phase I, BMI >= 30 kg/m^2): −6.414 | Effect on change in HAMD-28 score (Phase I, BMI >= 30 kg/m^2): −6.677 | Effect on change in HAMD-17 score [2]: −6.569 | Effect on change in HAMD-28 score [2]: −6.510 | Effect on change in HAMD-17 score (Phase I, BMI >= 30 kg/m^2 and SAM/SAH < median): −5.611 | Effect on change in HAMD-28 score (Phase I, BMI >= 30 kg/m^2 and SAM/SAH < median = 2.71 (plasma)): −6.306 | Effect on change in HAMD-17 score [3]: −0.567 | Effect on change in HAMD-28 score [3]: −0.668 | Effect on change in HAMD-17 score [4]: 4.500 | Effect on change in HAMD-28 score [4]: 2.769 | Effect on change in HAMD-17 score (Phase I, MTHFR 677 CC and HNE-His < median): −1.471 | Effect on change in HAMD-28 score (Phase I, MTHFR 677 CC and HNE-His < median = 3.28 (plasma)): −2.821 | Effect on change in HAMD-17 score [5]: −8.738 | Effect on change in HAMD-28 score [5]: −9.857 | Effect on change in HAMD-17 score [6]: −7.143 | Effect on change in HAMD-28 score [6]: −6.929 | Effect on change in HAMD-17 score (Phase I, MTR 2756 AA): −0.621 | Effect on change in HAMD-28 score (Phase I, MTR 2756 AA): 0.409 | Effect on change in HAMD-17 score [7]: 4.476 | Effect on change in HAMD-28 score [7]: 5.524 | Effect on change in HAMD-17 score [8]: 0.306 | Effect on change in HAMD-28 score [8]: 0.639 | Effect on change in HAMD-17 score [9]: 3.125 | Effect on change in HAMD-28 score [9]: 5.000 | Effect on change in HAMD-17 score (Phase I, MTR 2756 AA and MTRR 66 AA and HNE-His < median): 3.000 | Effect on change in HAMD-28 score (Phase I, MTR 2756 AA and MTRR 66 AA and HNE-His < median = 3.28 (plasma)): 4.200 | Effect on change in HAMD-17 score [10]: −0.400 | Effect on change in HAMD-28 score [10]: −1.000 | Effect on change in HAMD-17 score [11]: −1.556 | Effect on change in HAMD-28 score [11]: −1.278 | Effect on change in HAMD-17 score [12]: −12.905 | Effect on change in HAMD-28 score [12]: −18.762 | Effect on change in HAMD-17 score (Phase I, MTR 2756 AG or GG and HNE-His >= median): −7.125 | Effect on change in HAMD-28 score (Phase I, MTR 2756 AG or GG and HNE-His >= median = 3.28 (plasma)): −9.950 | Effect on change in HAMD-17 score [13]: −6.900 | Effect on change in HAMD-28 score [13]: −9.996 | Effect on change in HAMD-17 score [14]: −7.200 | Effect on change in HAMD-28 score [14]: −9.800 | Effect on change in HAMD-17 score (Phase I, MTR 2756 AG or GG and MTRR 66 AG or GG and SAM/SAH < median): −9.000 | Effect on change in HAMD-28 score (Phase I, MTR 2756 AG or GG and MTRR 66 AG or GG and SAM/SAH < median = 2.71 (plasma)): −12.741 | Effect on change in HAMD-17 score (Phase I, MTR 2756 AG or GG and SAM/SAH < median): −9.800 | Effect on change in HAMD-28 score (Phase I, MTR 2756 AG or GG and SAM/SAH < median = 2.71 (plasma)): −14.993 | Effect on change in HAMD-17 score (Phase I, MTR 2756 AG/GG): −7.143 | Effect on change in HAMD-28 score (Phase I, MTR 2756 AG/GG): −10.926 | Effect on change in HAMD-17 score (Phase I, MTRR 66 AA and HNE-His < median): −1.167 | Effect on change in HAMD-28 score (Phase I, MTRR 66 AA and HNE-His < median = 3.28 (plasma)): −4.167 | Effect on change in HAMD-17 score [15]: −0.125 | Effect on change in HAMD-28 score [15]: 0.500 | Effect on change in HAMD-17 score [16]: −5.958 | Effect on change in HAMD-28 score [16]: −6.975 | Effect on change in HAMD-17 score (Phase I, MTRR 66 AG or GG and SAM/SAH < median): −5.062 | Effect on change in HAMD-28 score (Phase I, MTRR 66 AG or GG and SAM/SAH < median = 2.71 (plasma)): −6.498 | Effect on change in HAMD-17 score [17]: −3.670 | Effect on change in HAMD-28 score [17]: −4.227 | Effect on change in HAMD-17 score (Phase I, SAM/SAH >= med): −0.946 | Effect on change in HAMD-28 score (Phase I, SAM/SAH >= med = 2.71 (plasma)): −1.148 | Effect on change in HAMD-17 score [18]: −0.250 | Effect on change in HAMD-28 score [18]: −0.750 | Effect on change in HAMD-28 score (Phase I, SAM/SAH*treat, first line under HAMD28): 0.495 | Effect on change in HAMD-17 score (Phase I, baseHAMD-17*treat (interaction of base HAMD-17 with the treatment)): 0.165 | Effect on change in HAMD-17 score [19]: 2.000 | Effect on change in HAMD-28 score [19]: 0.000 | Effect on change in HAMD-17 score (Phase II, BMI < 25): −1.400
